Several values for one entry are separate records, joined by “and”; a condition that tells them apart may be missing. Equal entries are not always repeated. Where two headings read alike, the source gives them in different places.

Series [1] has as its system cytokine interleukin 6 (IL-6). Kind of series: IL-6 quantification in HT22 mouse hippocampal neuronal cells. Type of series: cell-based. The conditions noted are these: LPS stressed, HBr salt, 24 hours. The source says: (§1) For neuroplasticity, brain-derived neurotrophic factor (BDNF; FIGS. 3B1 and 3B2) and for inflammation, cytokine interleukin 6 (IL-6; FIGS. 3A1 and 3A2) and TNFα (FIGS. 3C1 and 3C2), were quantified with and without proinflammatory treatment of lipopolysaccharide (LPS). LPS-induced inflammation is a model for neuroinflammation similar to what is seen in patients with neurodegenerative disorders. […] IL-6 is elevated in patients with frontotemporal dementias and other neurodegenerative disorders and especially in patients with disinhibition.

For series [2], the system named is brain-derived neurotrophic factor (BDNF). Kind of series: BDNF quantification in HT22 mouse hippocampal neuronal cells. Type of series: cell-based. The following applies: HT22 control cells (no LPS); HBr salt; 24 hours.
Source text: as §1

Another series concerns TNFα. Kind of series: TNFα quantification in HT22 mouse hippocampal neuronal cells. It is filed as cell-based. The conditions noted are these: LPS stressed, HBr salt, 24 hours.
Source text: as §1

In series [3] the test system is metabotropic glutamate receptor 2 (mGlu2). Put plainly: Brain tissue mGlu2 protein expression in prefrontal cortex after in vivo treatment. The following applies: male C57BL/6J mice, 25 mg/kg daily 18 days. Also noted: species or system mouse. The text has this: The expression of metabotropic glutamate receptor 2 (mGlu2) in the prefrontal cortex was quantified following in vivo mouse studies. Regulation of the metabotropic glutamate receptor 2 (mGlu2) levels in alcohol seeking rats can reduce relapse behavior.

A further series relates to mice. Put plainly: Reduction in alcohol consumption. It is filed as in vivo, mouse. The conditions noted are these: addicted mice. The text has this:
In order to test for the ability to curb alcohol consumption, mice were given 8-20%/alcohol ab libitum for two weeks. The results of alcohol consumption were monitored over two weeks after daily dosing of test compound in relation to positive control (4-AcO-DMT). Further studies extended the experiment to 60 days for three different doses while only dosing the mice every 3 days.

Series [4] is classed as in vivo. The conditions noted are these: rat. The procedure: (§2) The rat PK (FIG. 6) was assessed with an oral dose of 10 mg/kg and intravenously at 1 mg/kg. […] The PK and brain concentrations were assessed in cohorts of 3 […] for each dosing group and between the plasma vs brain concentrations. For 10 mg/kg oral dosing, the PK parameters are outlined in Table 16 below.
1 mg/kg IV dosing, the PK parameters are outlined in Table 17.

Series [5] is classed as in vivo. The conditions noted are these: rat, IV 1 mg/kg of 2-Br-4-AcO-DMT * HBr, 4 h, individual rat. As to the method: as §2
The brain vs. plasma concentrations from oral and IV doses of 2-Br-4-ACO-DMT*HBr are listed in Table 18 via detection of active 2-Br-4-OH-DMT.

As to `CC(=O)Oc1cccc2[nH]c(Br)c(CCN(C)C)c12` [2-Br-4-AcO-DMT, 2-bromo-3-(2-(dimethylamino)ethyl)-1H-indol-4-yl acetate], in series [1], the IL-6 level result was “reduces IL-6”. The BDNF level result in series [2] is given as “increases neuroplasticity marker BDNF in the control cells”. Besides, the TNFα level result in the series with TNFα was “reduces IL-6 and TNFα in the stressed LPS cells”. The “mGluR2 expression reduction compared with psilacetin” value in series [3] (n=5-6, relative to actin, normalized to vehicle) was “exceeding the effect of psilacetin”. Moreover, the “mGluR2 expression, unstressed mice” value in series [3] (no-stress, prefrontal cortex) is “reduced expression of mGluR2”. For the same compound, the “mGluR2 expression, stressed mice” value in series [3] (tube restraint, prefrontal cortex) is given as “reduced expression of mGluR2”.
As for `CC(=O)Oc1cccc2[nH]c(Br)c(CCN(C)C)c12` [drawing 37], in the series on mice, the “Alcohol Consumption, effective dose range” value is 5 to 40 mg/kg.
As to `CN(C)CCc1c(Br)[nH]c2cccc(O)c12` [2-Br-4-OH-DMT, 2-bromo-3-(2-(dimethylamino)ethyl)-1H-indol-4-ol], the “AUC Extr” value in series [4] (1 mg/kg IV of 2-Br-4-AcO-DMT * HBr, individual rat, 1 mg/kg) is 7.66% and 4.06% and 4.54%; in series [4] (1 mg/kg IV of 2-Br-4-AcO-DMT * HBr, mean of 3 rats), 5.42%; in series [4] (10 mg/kg PO of 2-Br-4-AcO-DMT * HBr, mean of 3 rats) it was 4.50%. In series [5], the “Plasma Concentration” value is “BLOQ”.
